Measured values reported in patent publication US8563013B2, “Systems and methods for delivering a fluid drug” (Janssen Biotech, Inc., priority 2007, dated 2013).

Assay: Light-induced degradation of a carbidopa-containing fluid formulation
Assay type: physicochemical
Conditions: fluid formulation having carbidopa; visible light with wavelengths in the range of about 400 nm to about 550 nm
Text: In some embodiments, the reservoir, and/or other portions of a dosing container, can be adapted to hinder exposure of a contained fluid from portions of a light spectrum, which can be capable of degrading or rendering one or more components of a fluid ineffective. […] Accordingly, if a container is adapted to hinder a carbidopa-containing fluid from being exposed to at least wavelengths in about the 400 nm to about 550 nm range, preservation of the carbidopa can be enhanced. As well, other embodiments can utilize other techniques, in combination or alone, which effectively reduce degradation of a carbidopa-containing fluid in the presence of visible light, such as adding a dye to the carbidopa-containing fluid (e.g., FD&C Yellow 6) to absorb the undesired light components. Other techniques, including ones familiar to those skilled in the art, can also be used.

C[C@@](Cc1ccc(O)c(O)c1)(NN)C(=O)O [carbidopa]
degradation on exposure to light: found to degrade
